Source: ChEMBL document CHEMBL1201862, “PubChem BioAssay data set” (2004)
The source made the active and inactive calls.

Experiments:
[1] = biological target: T1, Dual specificity protein phosphatase 6 (Rattus norvegicus, UniProt Q64346); assay type: functional
[2] = biological target: T1, Dual specificity protein phosphatase 6
[3] = biological target: Glyceraldehyde-3-phosphate dehydrogenase (Homo sapiens, UniProt P04406)
[4] = biological target: T2, Tyrosine-protein phosphatase non-receptor type 7 (Homo sapiens, UniProt P35236); assay type: functional
T2 sequence (P35236 whole entry): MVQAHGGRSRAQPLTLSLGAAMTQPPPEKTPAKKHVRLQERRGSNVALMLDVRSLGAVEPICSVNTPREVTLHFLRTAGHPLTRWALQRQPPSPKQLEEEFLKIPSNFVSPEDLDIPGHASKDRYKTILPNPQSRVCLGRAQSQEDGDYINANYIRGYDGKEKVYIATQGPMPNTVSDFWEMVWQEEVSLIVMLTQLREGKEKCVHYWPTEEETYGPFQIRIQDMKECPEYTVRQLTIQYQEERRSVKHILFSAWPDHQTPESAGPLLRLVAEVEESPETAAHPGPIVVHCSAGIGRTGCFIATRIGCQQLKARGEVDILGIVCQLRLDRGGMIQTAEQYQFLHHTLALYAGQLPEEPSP

Cytochrome P450 2C19 = Cytochrome P450 2C19 (Homo sapiens, UniProt P33261); assay: Cytochrome panel assay with activity outcomes. Panel member name: p450-cyp2c19 Compounds with AC50 equal or less than 10 uM are considered active; assay type: functional
Cytochrome P450 1A2 = biological target: T3, Cytochrome P450 1A2 (Homo sapiens, UniProt P05177);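 note: PubChem cytochrome P450 panel assay, CYP1A2 panel member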
T3 sequence (P05177 whole entry): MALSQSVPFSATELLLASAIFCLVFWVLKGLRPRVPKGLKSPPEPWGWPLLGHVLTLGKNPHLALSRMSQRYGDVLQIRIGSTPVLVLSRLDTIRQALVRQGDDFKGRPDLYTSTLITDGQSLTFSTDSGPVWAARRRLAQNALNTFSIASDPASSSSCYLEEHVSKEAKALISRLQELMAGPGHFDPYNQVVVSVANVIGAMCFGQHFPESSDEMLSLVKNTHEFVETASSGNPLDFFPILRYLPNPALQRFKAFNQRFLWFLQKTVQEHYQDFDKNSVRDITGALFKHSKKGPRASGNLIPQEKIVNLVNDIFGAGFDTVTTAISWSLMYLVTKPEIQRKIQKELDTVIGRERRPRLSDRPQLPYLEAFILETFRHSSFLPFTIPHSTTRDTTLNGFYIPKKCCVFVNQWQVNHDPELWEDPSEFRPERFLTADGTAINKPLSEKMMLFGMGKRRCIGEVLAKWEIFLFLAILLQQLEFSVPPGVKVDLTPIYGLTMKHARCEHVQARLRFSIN

Cytochrome P450 2D6 [5] = biological target: T4, Cytochrome P450 2D6 (Homo sapiens, UniProt P10635);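 note: CYP2D6 member of a cytochrome P450 panel assay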
Cytochrome P450 3A4 = Cytochrome P450 3A4 (Homo sapiens, UniProt P08684);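 note: CYP3A4 tested as one member of a cytochrome P450 panel screen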
[6] = biological target: Intestinal-type alkaline phosphatase (Mus musculus, UniProt P24822); assay: PubChem AID 488874; assay type: functional
[7] = biological target: T5, Intestinal-type alkaline phosphatase (Homo sapiens, UniProt P09923); assay: human intestinal alkaline phosphatase activators, dose response, biochemical, luminescence, uHTS hits (AID 463120); assay type: functional
[8] = biological target: T6, Alkaline phosphatase, tissue-nonspecific isozyme (Homo sapiens, UniProt P05186); assay: activation of tissue-nonspecific alkaline phosphatase – biochemical, TNAP isozyme, human IAP uHTS hits, selectivity assay for human IAP activator project, dose response (AID 488886); assay type: functional;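 note: potency of compounds raising TNAP activity as a selectivity check on IAP activators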
T6 sequence (P05186 whole entry): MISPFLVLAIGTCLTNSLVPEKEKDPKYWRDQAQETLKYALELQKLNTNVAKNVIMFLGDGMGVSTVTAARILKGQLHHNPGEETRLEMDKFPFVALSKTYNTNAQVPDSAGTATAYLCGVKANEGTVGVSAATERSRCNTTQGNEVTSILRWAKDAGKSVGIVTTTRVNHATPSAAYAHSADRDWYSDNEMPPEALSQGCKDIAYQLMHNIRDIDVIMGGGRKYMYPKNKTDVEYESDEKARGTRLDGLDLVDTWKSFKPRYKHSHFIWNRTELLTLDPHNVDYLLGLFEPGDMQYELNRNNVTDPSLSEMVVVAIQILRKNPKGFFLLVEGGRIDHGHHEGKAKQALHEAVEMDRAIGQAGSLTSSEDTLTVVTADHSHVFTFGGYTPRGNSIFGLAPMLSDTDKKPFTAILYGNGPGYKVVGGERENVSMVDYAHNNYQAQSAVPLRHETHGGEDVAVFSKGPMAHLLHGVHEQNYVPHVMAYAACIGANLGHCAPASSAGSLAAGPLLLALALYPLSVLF

[9] = biological target: T5, Intestinal-type alkaline phosphatase; assay: activation of human intestinal alkaline phosphatase – biochemical, luminescent, uHTS hits, set 2, dose response (AID 488817); assay type: functional;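 note: potency of activators that raise enzyme activity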
[10] = biological target: Heat shock protein HSP 90-alpha (Homo sapiens, UniProt P07900); assay type: functional, organism-based
[11] = mammalian cell viability loss – Alamar Blue, dry powder, cytotoxicity control for antifungal single agent project, dose response (AID 602188); assay type: functional, cell-based
[12] = biological target: T7, Serine/threonine-protein phosphatase (Candida dubliniensis (strain CD36 / CBS 7987 / NCPF 3949 / NRRLY-17841) (Yeast), UniProt B9W6M3); assay: Fluorescence Cell-Based Secondary Assay to Identify Inhibitors of Calcineurin. [Related pubchem assays (depositor defined):AID1979, AID2007]; assay type: functional
T7 sequence (B9W6M3 whole entry): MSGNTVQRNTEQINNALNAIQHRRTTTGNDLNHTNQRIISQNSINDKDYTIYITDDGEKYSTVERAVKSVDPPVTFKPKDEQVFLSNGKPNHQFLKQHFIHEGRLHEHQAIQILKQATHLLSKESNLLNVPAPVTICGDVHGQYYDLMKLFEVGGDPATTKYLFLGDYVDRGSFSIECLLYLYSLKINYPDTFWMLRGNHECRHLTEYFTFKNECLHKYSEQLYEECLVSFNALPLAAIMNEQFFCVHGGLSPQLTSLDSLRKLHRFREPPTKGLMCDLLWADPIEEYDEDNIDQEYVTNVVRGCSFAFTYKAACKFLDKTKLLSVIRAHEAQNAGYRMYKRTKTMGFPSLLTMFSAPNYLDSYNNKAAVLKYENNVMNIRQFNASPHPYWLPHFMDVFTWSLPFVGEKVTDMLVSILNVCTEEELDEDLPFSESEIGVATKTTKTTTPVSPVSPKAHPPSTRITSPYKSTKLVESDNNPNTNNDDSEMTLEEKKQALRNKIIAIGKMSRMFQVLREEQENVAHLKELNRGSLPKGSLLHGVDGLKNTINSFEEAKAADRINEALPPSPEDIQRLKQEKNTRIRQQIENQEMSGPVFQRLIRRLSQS

[13] = biological target: ATP-dependent molecular chaperone HSP82 (Candida albicans (strain WO-1) (Yeast), UniProt C4YTQ8); assay: steroid-induced GRE reporter decrease in yeast – S. cerevisiae, luminescence, Hsp90 inhibitor project, dose response (AID 2400); assay type: functional, cell-based;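 note: beta-galactosidase luminescence from glucocorticoid response element reporter as proxy for Hsp90 function; inhibitor potency where signal loss means Hsp90 inhibition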
[14] = biological target: T7, Serine/threonine-protein phosphatase; assay: blockers of CaCl2-induced CDRE-lacZ signaling – S. cerevisiae, luminescence, secondary, dose response (AID 2388); assay type: functional, cell-based;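 note: yeast reporter cells carrying a calcineurin-responsive lacZ construct stimulated with calcium chloride; luminescent beta-galactosidase reporter signal in whole cells rather than isolated phosphatase activity; potency for inhibition where a drop in reporter signal means calcineurin blockade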
[15] = NIH-3T3 fibroblast cytotoxicity, dose response, cytotoxicity control, cell-based, fluorescence, Alamar Blue, secondary assay (AID 2327); assay type: functional;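 note: NIH-3T3 mouse fibroblasts cultured with fluconazole at 8 µg/mL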
[16] = fluconazole-exposed Candida albicans growth modulators – fluorescence, retest, confirmation (AID 2467); assay type: functional, cell-based
CAAX prenyl protease 1 = CAAX prenyl protease 1 (Saccharomyces cerevisiae S288c, UniProt P47154); assay: yeast CAAX protease Ste24 inhibition – biochemical, S. cerevisiae, plate reader, cherry-pick, dose response (AID 488815)
Cytochrome P450 2D6 [17] = biological target: T4, Cytochrome P450 2D6; remark: listed apart in the source
Trypsin = Trypsin (Sus scrofa, UniProt P00761); assay: trypsin protease activity blockade – biochemical, quenched peptide fluorescence, cherry-pick, selectivity assay for Rce1 protease inhibitor project, dose response (AID 488789)
Sequence of Trypsin (P00761 whole entry): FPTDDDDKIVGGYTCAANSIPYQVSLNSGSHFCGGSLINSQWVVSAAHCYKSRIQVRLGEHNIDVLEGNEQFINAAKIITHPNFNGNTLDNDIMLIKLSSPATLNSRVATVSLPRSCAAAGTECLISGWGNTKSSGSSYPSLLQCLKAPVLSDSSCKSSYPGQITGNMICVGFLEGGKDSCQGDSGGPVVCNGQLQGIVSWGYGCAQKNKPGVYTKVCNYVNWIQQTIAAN

T5 sequence (P09923 whole entry): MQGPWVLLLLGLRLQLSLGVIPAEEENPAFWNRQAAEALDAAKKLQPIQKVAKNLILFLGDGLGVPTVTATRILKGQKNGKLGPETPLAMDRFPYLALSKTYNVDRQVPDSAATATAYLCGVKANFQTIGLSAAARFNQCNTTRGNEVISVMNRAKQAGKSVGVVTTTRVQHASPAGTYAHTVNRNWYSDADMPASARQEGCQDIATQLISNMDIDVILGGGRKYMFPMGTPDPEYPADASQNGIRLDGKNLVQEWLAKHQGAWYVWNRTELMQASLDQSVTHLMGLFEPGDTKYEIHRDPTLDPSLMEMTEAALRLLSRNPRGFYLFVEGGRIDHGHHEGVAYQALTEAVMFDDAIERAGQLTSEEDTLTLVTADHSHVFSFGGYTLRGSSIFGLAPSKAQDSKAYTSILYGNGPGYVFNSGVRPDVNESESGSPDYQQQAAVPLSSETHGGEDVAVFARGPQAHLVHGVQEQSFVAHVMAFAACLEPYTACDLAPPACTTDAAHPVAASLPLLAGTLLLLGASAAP
T4 sequence (P10635 whole entry): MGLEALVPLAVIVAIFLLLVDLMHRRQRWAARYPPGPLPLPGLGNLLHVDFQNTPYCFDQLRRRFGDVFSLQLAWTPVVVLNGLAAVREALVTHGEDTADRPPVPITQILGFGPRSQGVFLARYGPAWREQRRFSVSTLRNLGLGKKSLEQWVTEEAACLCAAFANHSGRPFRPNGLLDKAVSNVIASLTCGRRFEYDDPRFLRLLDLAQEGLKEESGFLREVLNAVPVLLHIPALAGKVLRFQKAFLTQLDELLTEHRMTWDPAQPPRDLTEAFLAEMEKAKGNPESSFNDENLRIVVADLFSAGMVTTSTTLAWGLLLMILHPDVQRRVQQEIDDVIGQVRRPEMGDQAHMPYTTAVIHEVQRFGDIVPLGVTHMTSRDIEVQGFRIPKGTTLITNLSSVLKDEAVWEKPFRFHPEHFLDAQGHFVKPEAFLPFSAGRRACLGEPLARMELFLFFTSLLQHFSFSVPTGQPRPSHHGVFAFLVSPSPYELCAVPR
T1 sequence (Q64346 whole entry): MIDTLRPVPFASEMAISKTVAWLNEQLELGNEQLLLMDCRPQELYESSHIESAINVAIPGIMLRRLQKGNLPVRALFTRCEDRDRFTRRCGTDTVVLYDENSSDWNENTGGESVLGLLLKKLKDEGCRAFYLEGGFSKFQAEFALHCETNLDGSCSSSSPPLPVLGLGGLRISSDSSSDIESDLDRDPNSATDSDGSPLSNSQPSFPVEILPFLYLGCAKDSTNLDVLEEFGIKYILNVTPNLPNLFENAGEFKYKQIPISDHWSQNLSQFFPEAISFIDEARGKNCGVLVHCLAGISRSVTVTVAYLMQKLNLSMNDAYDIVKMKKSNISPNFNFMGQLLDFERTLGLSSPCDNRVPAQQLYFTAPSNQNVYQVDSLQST
Sequence of CAAX prenyl protease 1 (P47154 whole entry): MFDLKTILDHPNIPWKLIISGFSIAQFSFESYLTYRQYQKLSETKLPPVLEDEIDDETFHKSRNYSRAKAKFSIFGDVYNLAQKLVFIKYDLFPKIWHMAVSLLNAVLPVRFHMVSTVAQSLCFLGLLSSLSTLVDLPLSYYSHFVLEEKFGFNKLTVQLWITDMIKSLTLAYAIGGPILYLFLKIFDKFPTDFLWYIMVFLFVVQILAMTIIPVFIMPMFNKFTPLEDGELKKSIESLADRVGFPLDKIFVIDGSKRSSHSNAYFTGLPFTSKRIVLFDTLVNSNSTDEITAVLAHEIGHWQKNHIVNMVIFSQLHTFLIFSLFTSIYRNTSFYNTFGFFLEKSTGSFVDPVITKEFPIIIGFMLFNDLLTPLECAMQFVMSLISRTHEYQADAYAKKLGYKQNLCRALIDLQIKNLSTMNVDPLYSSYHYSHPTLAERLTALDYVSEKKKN
Sequence of Intestinal-type alkaline phosphatase (Mus musculus, UniProt P24822) (P24822 whole entry): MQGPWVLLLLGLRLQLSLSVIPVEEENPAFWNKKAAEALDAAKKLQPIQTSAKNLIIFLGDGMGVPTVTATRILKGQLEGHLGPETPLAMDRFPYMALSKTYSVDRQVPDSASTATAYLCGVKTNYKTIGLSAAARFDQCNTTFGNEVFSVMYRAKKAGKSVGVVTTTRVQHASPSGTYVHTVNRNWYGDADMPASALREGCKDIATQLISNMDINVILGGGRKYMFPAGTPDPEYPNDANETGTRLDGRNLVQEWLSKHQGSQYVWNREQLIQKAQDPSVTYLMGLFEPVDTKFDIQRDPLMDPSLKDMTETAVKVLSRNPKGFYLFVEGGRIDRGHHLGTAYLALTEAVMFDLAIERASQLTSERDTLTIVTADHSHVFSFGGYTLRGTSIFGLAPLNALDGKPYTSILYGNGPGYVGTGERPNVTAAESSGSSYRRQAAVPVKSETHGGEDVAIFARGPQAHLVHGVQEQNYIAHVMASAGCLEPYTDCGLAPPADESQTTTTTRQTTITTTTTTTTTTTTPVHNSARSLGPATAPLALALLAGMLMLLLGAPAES
Sequence of Cytochrome P450 3A4 (P08684 whole entry): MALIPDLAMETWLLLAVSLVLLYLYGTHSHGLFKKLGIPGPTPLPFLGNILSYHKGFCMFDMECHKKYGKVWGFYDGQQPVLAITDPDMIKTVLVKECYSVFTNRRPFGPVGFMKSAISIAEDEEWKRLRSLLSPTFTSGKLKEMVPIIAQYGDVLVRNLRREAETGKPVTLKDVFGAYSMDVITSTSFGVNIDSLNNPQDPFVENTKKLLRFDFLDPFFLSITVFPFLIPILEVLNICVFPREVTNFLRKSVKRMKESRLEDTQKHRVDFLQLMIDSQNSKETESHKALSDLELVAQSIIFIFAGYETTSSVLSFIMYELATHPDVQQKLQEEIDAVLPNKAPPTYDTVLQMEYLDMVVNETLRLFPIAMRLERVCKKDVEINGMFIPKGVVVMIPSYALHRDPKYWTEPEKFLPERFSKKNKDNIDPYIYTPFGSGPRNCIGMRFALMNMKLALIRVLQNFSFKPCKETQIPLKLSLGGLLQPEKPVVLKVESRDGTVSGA
Sequence of Cytochrome P450 2C19 (P33261 whole entry): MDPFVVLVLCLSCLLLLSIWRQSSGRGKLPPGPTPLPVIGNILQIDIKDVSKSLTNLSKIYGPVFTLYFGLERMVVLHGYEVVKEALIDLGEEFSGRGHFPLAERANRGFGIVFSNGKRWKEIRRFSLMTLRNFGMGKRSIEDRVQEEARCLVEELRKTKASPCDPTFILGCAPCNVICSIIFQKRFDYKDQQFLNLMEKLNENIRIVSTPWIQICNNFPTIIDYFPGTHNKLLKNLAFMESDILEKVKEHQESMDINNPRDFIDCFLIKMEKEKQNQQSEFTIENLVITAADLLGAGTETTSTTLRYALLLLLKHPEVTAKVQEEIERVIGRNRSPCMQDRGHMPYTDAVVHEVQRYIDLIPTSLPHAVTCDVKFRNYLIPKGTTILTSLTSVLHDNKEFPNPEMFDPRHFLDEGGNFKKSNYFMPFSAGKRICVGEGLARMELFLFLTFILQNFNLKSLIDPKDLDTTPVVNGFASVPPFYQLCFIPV
Sequence of Glyceraldehyde-3-phosphate dehydrogenase (P04406 whole entry): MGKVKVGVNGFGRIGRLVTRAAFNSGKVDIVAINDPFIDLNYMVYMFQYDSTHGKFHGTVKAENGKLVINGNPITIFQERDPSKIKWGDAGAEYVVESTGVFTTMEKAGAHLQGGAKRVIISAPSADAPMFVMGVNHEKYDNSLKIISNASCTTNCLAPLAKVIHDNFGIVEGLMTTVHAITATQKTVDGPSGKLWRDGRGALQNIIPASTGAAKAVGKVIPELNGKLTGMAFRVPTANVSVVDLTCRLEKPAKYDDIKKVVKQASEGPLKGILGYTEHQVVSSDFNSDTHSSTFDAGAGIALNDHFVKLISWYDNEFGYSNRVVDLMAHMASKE
Sequence of ATP-dependent molecular chaperone HSP82 (C4YTQ8 whole entry): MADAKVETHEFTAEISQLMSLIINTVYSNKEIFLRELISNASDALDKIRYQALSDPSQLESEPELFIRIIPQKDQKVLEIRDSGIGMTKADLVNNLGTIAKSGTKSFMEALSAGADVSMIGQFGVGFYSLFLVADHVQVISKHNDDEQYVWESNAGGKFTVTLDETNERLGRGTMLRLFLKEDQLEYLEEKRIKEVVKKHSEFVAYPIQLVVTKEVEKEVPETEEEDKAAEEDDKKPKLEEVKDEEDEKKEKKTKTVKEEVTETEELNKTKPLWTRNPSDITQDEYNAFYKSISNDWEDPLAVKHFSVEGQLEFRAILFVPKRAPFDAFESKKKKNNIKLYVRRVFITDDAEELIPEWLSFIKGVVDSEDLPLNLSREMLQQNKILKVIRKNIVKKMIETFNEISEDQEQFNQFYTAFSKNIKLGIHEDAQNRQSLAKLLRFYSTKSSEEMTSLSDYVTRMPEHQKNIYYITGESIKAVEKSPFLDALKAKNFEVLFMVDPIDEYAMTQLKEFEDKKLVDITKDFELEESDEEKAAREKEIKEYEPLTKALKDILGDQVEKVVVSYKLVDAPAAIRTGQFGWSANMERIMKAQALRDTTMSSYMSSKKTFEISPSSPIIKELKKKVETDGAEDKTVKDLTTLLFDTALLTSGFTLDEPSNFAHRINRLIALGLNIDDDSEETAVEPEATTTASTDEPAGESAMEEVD

## CCCCCCCCCCCCCCCCCCC#CCCCCCCCC(=O)O
[1]
  IC50: > 100 µM (inactive)
[2]
  IC50: > 100 µM (inactive)
[3]
  IC50: > 100 µM (not active)
[4]
  IC50: 0.792 µM (active)

## O=C(O)c1cc(-c2ccc(F)cc2F)ccc1O [DIFLUNISAL]
Cytochrome P450 2C19
  AC50: inactive
Cytochrome P450 1A2
  AC50: inactive
Cytochrome P450 2D6 [5]
  AC50: inactive
Cytochrome P450 3A4
  AC50: inactive

## CCOc1cc(/C=N/NC(=O)C(=O)N/N=C/c2ccc(O)c(OCC)c2)ccc1O
[6]
  IC50: > 100 µM (inactive)
[7]
  EC50: 29.1 µM (active)
[8]
  EC50: > 100 µM (inactive)
[9]
  EC50: 100 µM (inactive)

## O=C(Nc1nnc(-c2ccc3c(c2)CCCC3)o1)c1ccc(Cl)cc1Cl
[10]
  AC50: 2.34 µM (active)
[11]
  AC50: 11.5 µM (active)
[12]
  EC50: 4.66 µM (active)
[13]
  EC50: 1.74 µM (active)
[14]
  EC50: 8.1 µM (active)
[15]
  EC50: > 160 µM (inactive)
[16]
  EC50: 0.117 µM (active)

## C=CCNc1oc(/C=C/c2ccccc2)nc1C#N
CAAX prenyl protease 1
  AC50: 63.7 µM (active)
Cytochrome P450 2D6 [17]
  AC50: 20 µM (inconclusive)
Trypsin
  AC50: 23.5 µM (active)
